Holding throughout (assay): growth of human tumour cells (NCI), 48 h
In test [1] the test system is HOP-18 NSCLC.
Test [2] relates to DMS 114 small cell lung.
The subject of test [3] is SNB-78 CNS.
In test [4] the test system is ACHN renal.
Test [5] relates to UACC-257 melanoma.
In test [6] the test system is OVCAR-5 ovarian.
Test [7] relates to SNB-75 CNS.
The subject of test [8] is CAKI-1 renal.
Test [9] deals with NCI-H23 lung.
The test system of test [10] is XF 498 CNS.
In test [11] the test system is TK-10 renal.

Experimental findings from PubChem BioAssay (NCI) are described below.

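In this assay, cells in 96-well plates receive the compound at five concentrations for 48 hours. Endpoints are linearly interpolated between the surrounding concentrations. TGI denotes the concentration required for complete inhibition of growth.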

For the compound `N=c1n(CC(=O)NC23CC4CC(CC(C4)C2)C3)c2ccccc2n1CC(=O)NC12CC3CC(CC(C3)C1)C2`, the TGI in test [1] came out at 4.5 µM; in test [2] it was 3.67 µM; in [3], 6.38 µM; in test [4] it was 3.94 µM; in test [5] it was 3.17 µM; in test [6], 3.08 µM. Further, the TGI in test [7] was found to be 4.12 µM; in test [8] it was 24.3 µM; in [9], 3.13 µM; in test [10] it was 2.93 µM; in [11], 3.08 µM.
`CO[C@H]1CC[C@]2(C)C3=CC[C@@]4(C)C(CC[C@@H]4C(C)CC[C@@H](C)C(C)C)C(=CCC2C1)O3` (stereo partly specified): the TGI in test [1], in test [2], in test [3], in [4], in [5] and in test [6] was greater than 25 µM throughout. For the same compound, the TGI was greater than 25 µM in test [7]; greater than 25 µM in test [8]; greater than 7.9 µM in test [9]; greater than 25 µM in [10]; greater than 25 µM in test [11].
On to `Brc1c2nc3ccccc3nc2n2ccc3ccccc3c12`, for which the TGI in test [2], in [3], in test [4], in [5], in test [6] and in [7] was greater than 100 µM throughout. In addition, the TGI in test [8], in test [9], in test [10] and in [11] was greater than 100 µM in each case.
In the case of `Cc1cc(Br)cc(C)c1NC(=O)C(=O)C(C(=O)c1ccncc1)C1OC(=O)c2ccccc21` (stereo unspecified), the TGI in test [1], in test [2], in [3], in test [4], in test [5] and in test [6] was greater than 100 µM in each case. For the same compound, the TGI in test [8], in test [9], in [10] and in test [11] was greater than 100 µM throughout.
On to `COc1cc2c(c(O)c1C)C(=O)CC(c1ccccc1)O2` (stereo unspecified), for which the TGI in [1], in test [2], in test [3], in test [4], in test [5] and in test [6] was greater than 100 µM each time. The TGI in test [7] is greater than 100 µM; in [8], greater than 100 µM; in test [9], greater than 100 µM; in test [11], 77.3 µM.
For the compound `COC1=CC(=O)C2C(C1=O)[C@@H]1c3ccccc3OC(C)(C)[C@H]21` (stereo partly specified), the TGI is 40.8 µM in test [2]; 41.5 µM in test [3]; 27.2 µM in [4]; greater than 100 µM in [5]; greater than 100 µM in test [6]; greater than 100 µM in test [7]. The TGI was 31 µM in [8], 36.9 µM in test [9], 32.1 µM in test [10] and 38.6 µM in [11].
On to `CC1(C)OC2CC3COC(=O)C3CC2O1` (stereo unspecified), for which the TGI in test [1], in [2], in test [3], in [4], in test [5] and in test [6] was greater than 100 µM each time. Also, the TGI in [7], in test [8], in [9] and in test [11] was greater than 100 µM each time.
In the case of `CCCCCCCCCCCCCCCCNCC(O)CN` (stereo unspecified), the TGI in [1] is 14 µM; in test [2], 21 µM; in test [3] it was 5.83 µM; in test [5] it was 23.7 µM; in test [6], 19.7 µM; in [7] it was 11 µM. Besides, the TGI in [8] was 30 µM; in test [9], 16.8 µM; in [10], 23.9 µM.
Take `Nc1ncnc2c1sc(=S)n2-c1ccccc1`: the TGI in test [1], in test [2], in test [3], in test [4], in [5] and in test [6] was greater than 100 µM throughout. The TGI in test [7], in [8], in test [9], in test [10] and in test [11] was greater than 100 µM throughout.
As for `C[N+](C)=c1ccc2nc3c(ccc4ccccc43)oc-2c1`, the TGI in test [1] was 23.6 µM; in [2], 54.4 µM; in test [3], 20.8 µM; in test [4] it was 26.7 µM; in test [5], 16.4 µM; in [6], 37 µM. For the same compound, the TGI in test [7] is 32.5 µM; in [8], 28.9 µM; in test [9], 27.2 µM; in test [10] it was 27.4 µM; in [11], 31.1 µM.
Turning to `COc1ccc(C2S/C(=C\c3cccc(OC)c3)C(=O)N2NC(=O)Cc2ccccc2)cc1` (stereo unspecified), the TGI in test [1], in test [4], in test [5], in [6], in [7] and in [8] was greater than 100 µM throughout. In addition, the TGI in test [9] and in test [11] was greater than 100 µM in each case.
As to `C/C=C/c1cc2c(c(=O)o1)C(=O)[C@@H](O)[C@H](C)O2`, the TGI in test [1] was found to be 31.9 µM; in test [2], 19.1 µM; in test [3], 42 µM; in test [5], 31.8 µM; in test [6], 31.1 µM; in test [7], 39 µM. Besides, the figures for the TGI in test [8] and in [9] were 31.3 µM and 32.4 µM, respectively.
For `O=C(NC12CC3CC(CC(C3)C1)C2)C(=O)c1c[nH]c2ccc(Br)cc12`, the TGI in test [1] is 44.1 µM; in [2] it was greater than 100 µM; in test [3], greater than 100 µM; in test [4], greater than 100 µM; in [5], greater than 100 µM; in test [6], greater than 100 µM. The TGI in test [7] is 28.2 µM; in test [8], greater than 100 µM; in test [9], greater than 100 µM; in test [11], 92.6 µM.
Regarding `O=S(=O)(c1ccccc1)c1nccs1`, the TGI in test [1], in [2], in test [3], in [4], in test [5] and in test [6] was greater than 100 µM each time. In addition, the TGI in test [7], in [8], in [9], in test [10] and in test [11] was greater than 100 µM each time.
For the compound `CCOP(=O)(OCC)/C(C#N)=C\c1ccsc1`, the TGI in [1], in test [2], in test [3], in test [4], in test [5] and in test [6] was greater than 100 µM throughout. The TGI in test [7], in test [8], in test [9], in [10] and in [11] was greater than 100 µM throughout.
